Assay results reported in patent US20240148821A1, “PHARMACEUTICAL USE OF CYCLIC PEPTIDE COMPOUND” (CHUGAI SEIYAKU KABUSHIKI KAISHA, priority 2021, published 2024).
Bridge positions count the residues as written; N and C are the ends. Square brackets hold non-standard residues; d marks the D form. Peptide text beside a SMILES is read from it. * marks the point of attachment. hPhe(3,5-F2-4-CF3) = N[C@@H](CCc1cc(F)c(C(F)(F)F)c(F)c1)C(=O)O; hPhe(3-Cl-4-CF3) = N[C@@H](CCc1ccc(C(F)(F)F)c(Cl)c1)C(=O)O; hPhe(3-F,4-CF3) = N[C@@H](CCc1ccc(C(F)(F)F)c(F)c1)C(=O)O; NMePhe(4-Me) = CN[C@@H](Cc1ccc(C)cc1)C(=O)O; NMeGly(cPent) = CN[C@H](C(=O)O)C1CCCC1; NMeCha = CN[C@@H](CC1CCCCC1)C(=O)O; Hyp = O=C(O)[C@@H]1C[C@@H](O)CN1; NMeChg = CN[C@H](C(=O)O)C1CCCCC1; NMeI = CC[C@H](C)[C@H](NC)C(=O)O; NMeD = CN[C@@H](CC(=O)O)C(=O)O; NMeL = CN[C@@H](CC(C)C)C(=O)O; NMeC = CN[C@@H](CS)C(=O)O; Morpholide = C1CN(*)CCO1; NMeA = CN[C@@H](C)C(=O)O; Piperidide = C1CCN(*)CC1; Ac5c = NC1(C(=O)O)CCCC1; Aze = O=C(O)[C@@H]1CCN1; Sar = CNCC(=O)O

Tests used:
[1] = system: various cancer cell lines (Ras mutation or amplification); test: Measurement of cell growth inhibitory activity against various cancer cell lines (CellTiter-Glo); type: cell-based, human
Procedure: Various cancer cell lines used were purchased from commercial suppliers. […] The cell suspension and culture medium supplemented with serum were dispensed to a plate containing the test compounds at 40 μL (384 well plate) or 200 μL (96 well plate) per well and incubated in a carbon dioxide gas incubator. […] Six days or seven days after the start of cultivation, 20 μL of CellTiter-Glo (Promega) was added to each well and fluorescence was measured.

[2] = target: protein-protein interaction between Kras and SOS1 (biotin-tagged human Kras loaded with GDP, His-tagged human SOS1) (Homo sapiens (Human), UniProt P01116, G12D); test: Protein-protein interaction inhibition between Kras and SOS1 (KrasG12D-SOS PPI) using AlphaScreen; type: biochemical; conditions: AlphaScreen; biotin-tagged human Kras loaded with GDP, His-tagged human SOS1; read-out: KRAS G12D-SOS PPI IC50;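 further: kras produced in E. coli, Ni-coupled donor beads and streptavidin acceptor beads, excitation 680 nm with emission detected at 520–620 nm via singlet oxygen transfer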
A549 (NSCLC) = test: In vivo antitumor activity, mouse xenograft model, A549; conditions: 10 days
Source text: (§1) Tumor growth inhibition rate (TGI %)=(1−TV/CV)×100

[3] = system: Human pancreatic cancer cell line AsPC-1 (G12D mutation Kras); test: AsPC-1 cell growth inhibition (AsPC-1 CGI); type: cell-based; conditions: read-out: AsPC-1 cell growth inhibition, 50% growth inhibitory concentration (IC50 value); 96 hours, CellTiter-Glo, values classified in ranges
Procedure: Test compounds were serially dilated with dimethyl sulfoxide, and 200 nL was then dispensed to a U-bottom 96-well plate using Labcyte Echo. […] The cell suspension was dispensed to a. plate containing a test compound at 100 μL per well and incubated at 37° C. in a 5% carbon dioxide gas incubator. 96 hours later, 80 μL of CellTiter-Glo (Promega) was added to each well and fluorescence was measured.

[4] = system: large bowel carcinoma cell line LS 180; test: In vivo antitumor activity, mouse xenograft model, LS 180; conditions: LS 180 (Colon) xenograft, 7 days
Source text: as §1

[5] = system: non-small cell lung cancer cell line NC1-1441 with a KRAS mutation; test: In vivo antitumor activity, mouse xenograft model, NCI-H441; conditions: NCI-H441 (NSCLC) xenograft, 14 days
Source text: as §1

human KRAS G12D (human) = human KRAS G12D (human) (UniProt P01116); test: cell-based or functional assay
human KRAS G12V (human) = human KRAS G12V (human) (UniProt P01116); test: cell-based or functional assay
human KRAS G12C (human) = human KRAS G12C (human) (UniProt P01116); test: cell-based or functional assay
human NRAS G13D (human) = human NRAS G13D (human) (UniProt P01111); test: cell-based or functional assay
human KRAS G12S (human) = human KRAS G12S (human) (UniProt P01116); test: cell-based or functional assay
[6] = target: human KRAS, gene copy number amplified (human) (UniProt P01116); test: cell-based or functional assay
[7] = A4/Fuk, Non-Hodgkin lymphoma, KRAS Amp
[8] = MIA PaCa-2, Pancreas, KRAS G12C

## CC[C@H](C)[C@@H]1NC(=O)[C@H](CC(C)C)N(C)C(=O)C[C@@H](C(=O)N2CCCCC2)N(C)C(=O)[C@H](C2CCCCC2)N(C)C(=O)C2(CCCC2)NC(=O)[C@@H]2CCCN2C(=O)[C@H](CCc2ccc(C(F)(F)F)c(Cl)c2)NC(=O)CN(C)C(=O)[C@H](CC2CCCCC2)N(C)C(=O)CN(C)C(=O)CN(C)C1=O [Compound 558, (3S,9S,18S,21S,25S,28S,34S)-3-[2-[3-chloro-4-(trifluoromethyl)phenyl]ethyl]-28-cyclohexyl-9-(cyclohexylmethyl)-21-isobutyl-7,10,13,16,22,26,29-heptamethyl-18-[(1S)-1-methylpropyl]-25-(piperidine-1-carbonyl)spiro[1,4,7,10,13,16,19,22,26,29,32-undecazabicyclo[32.3.0]heptatriacontane-31,1′-cyclopentane]-2,5,8,11,14,17,20,23,27,30,33-undecone] ([NMeL]I[Sar][Sar][NMeCha][Sar][hPhe(3-Cl-4-CF3)]P[Ac5c][NMeChg][NMeD]-Piperidide; lactam N-11)
[1]; [7]
  IC50: 5.83 nM
[1]; A549, NSCLC, KRAS G12S
  IC50: 7.98 nM
[1]; KURAMOCHI, Ovary, KRAS Amp
  IC50: 23.4 nM
[1]; LS 180, Colon, KRAS G12D
  IC50: 22.6 nM
[1]; [8]
  IC50: 18.7 nM
[1]; NCI-H441, NSCLC, KRAS G12V
  IC50: 31.6 nM
[1]; NCI-H929, Myeloma, NRAS G13D
  IC50: 55.7 nM
[1]; SNU-1, Stomach, KRAS G12D
  IC50: 29.8 nM
[1]; SW480, Colon, KRAS G12V
  IC50: 17.5 nM
[2]
  IC50: 1.8 nM
A549 (NSCLC); 10 mg/kg once daily
  TGI (%): 46%
A549 (NSCLC); 15 mg/kg once daily
  TGI (%): 57%
A549 (NSCLC); 30 mg/kg once daily
  TGI (%): 106%

## CC[C@H](C)[C@@H]1NC(=O)[C@H](CC(C)C)N(C)C(=O)C[C@@H](C(=O)N2CCOCC2)N(C)C(=O)[C@H](C2CCCC2)N(C)C(=O)C2(CCCC2)NC(=O)[C@@H]2CCCN2C(=O)[C@H](CCc2ccc(C(F)(F)F)c(Cl)c2)NC(=O)CN(C)C(=O)[C@H](CC2CCCCC2)N(C)C(=O)[C@@H]2CCN2C(=O)[C@H](C)N(C)C1=O [Compound 926, (5S,8S,11S,15S,18S,23aS,29S,35S,37aS)-8-((S)-sec-butyl)-29-(3-chloro-4-(trifluoromethyl)phenethyl)-35-(cyclohexylmethyl)-18-cyclopentyl-11-isobutyl-5,6,12,16,19,33,36-heptamethyl-15-(morpholine-4-carbonyl)docosahydro-2H,4H-spiro[azeto[2,1-u]pyrrolo[2,1-i][1,4,7,10,13,16,19,22,25,28,31]undecaazacyclotetratriacontine-21,1′-cyclopentan]-4,7,10,13,17,20,23,28,31,34,37(14H,22H)-undecaone] ([NMeL]I[NMeA][Aze][NMeCha][Sar][hPhe(3-Cl-4-CF3)]P[Ac5c][NMeGly(cPent)][NMeD]-Morpholide; lactam N-11)
[1]; [7]
  IC50: 1.28 nM
[1]; A549, NSCLC, KRAS G12S
  IC50: 1.09 nM
[1]; AGS, Stomach, KRAS G12D
  IC50: 1.46 nM
[1]; AsPC-1, Pancreas, KRAS G12D
  IC50: 3.33 nM
[1]; KURAMOCHI, Ovary, KRAS Amp
  IC50: 7.89 nM
[1]; LS 180, Colon, KRAS G12D
  IC50: 5.39 nM
[1]; [8]
  IC50: 8.93 nM
[1]; NCI-H441, NSCLC, KRAS G12V
  IC50: 2.87 nM
[1]; NCI-H929, Myeloma, NRAS G13D
  IC50: 18.8 nM
[1]; NOMO-1, AML, KRAS G13D
  IC50: 29.1 nM
[1]; SNU-1, Stomach, KRAS G12D
  IC50: 2.74 nM
[1]; SW480, Colon, KRAS G12V
  IC50: 56.7 nM
[3]
  IC50: ≤ 20 nM
[2]
  IC50: 0.99 nM
[4]; 15 mg/kg once daily
  TGI (%): 29%
[4]; 30 mg/kg once daily
  TGI (%): 75%

## CCO[C@@H]1C[C@H]2C(=O)NC3(CCCC3)C(=O)N(C)[C@@H](C3CCCC3)C(=O)N(C)[C@H](C(=O)N(C)C)CC(=O)N(C)[C@@H](CC(C)C)C(=O)N[C@@H]([C@@H](C)CC)C(=O)N(C)[C@@H](C)C(=O)N3CC[C@H]3C(=O)N(C)[C@@H](CC3CCCCC3)C(=O)N(C)CC(=O)N[C@@H](CCc3cc(F)c(C(F)(F)F)c(F)c3)C(=O)N2C1 [Compound 1201, (5S,8S,11S,1S,18S,23aS,25R,29S,35S,37aS)-8-((S)-sec-butyl)-35-(cyclohexymethyl)-18-cyclopentyl-29-(3,5-difluoro-4-(trifluoromethyl)phenethyl)-25-ethoxy-11-isobutyl-N,N,5,6,12,16,19,33,36-nonamethyl-4,7,10,13,17,20,23,28,31,34,37-undecaoxotetratriacontahydro-2H,4H-spiro[azeto[2,1-u]pyrrolo[2,1-i][1,4,7,10,13,16,19,22,25,28,31]undecaazacyclotetratriacontine-21,1′-cyclopentane]-15-carboxamide] ([NMeL]I[NMeA][Aze][NMeCha][Sar][hPhe(3,5-F2-4-CF3)][Hyp](Et)[Ac5c][NMeGly(cPent)][NMeD]-NMe2; lactam N-11 (inferred); C-terminus assumed)
[1]; [7]
  IC50: 0.65 nM
[1]; A549, NSCLC, KRAS G12S
  IC50: 0.25 nM
[1]; AGS, Stomach, KRAS G12D
  IC50: 0.48 nM
[1]; AsPC-1, Pancreas, KRAS G12D
  IC50: 0.84 nM
[1]; HEC-151, Endometrium, NRAS G12D
  IC50: 2.3 nM
[1]; KURAMOCHI, Ovary, KRAS Amp
  IC50: 2.63 nM
[1]; LS 180, Colon, KRAS G12D
  IC50: 1.32 nM
[1]; [8]
  IC50: 1.81 nM
[1]; NCI-H441, NSCLC, KRAS G12V
  IC50: 0.89 nM
[1]; NCI-H929, Myeloma, NRAS G13D
  IC50: 4.62 nM
[1]; NOMO-1, AML, KRAS G13D
  IC50: 4.9 nM
[1]; PA-1, Ovary, NRAS G12D
  IC50: 1.16 nM
[1]; SW480, Colon, KRAS G12V
  IC50: 9.6 nM
[3]
  IC50: ≤ 20 nM
[5]; 3 mg/kg once daily
  TGI (%): 68%
[5]; 6 mg/kg once daily
  TGI (%): 92%
[5]; 10 mg/kg once daily
  TGI (%): 104%

## CC[C@H](C)[C@@H]1NC(=O)[C@H](CC(C)C)N(C)C(=O)CSC[C@@H](C(=O)N(C)C)N(C)C(=O)[C@H](C2CCCC2)N(C)C(=O)C2(CCCC2)NC(=O)[C@@H]2CCCN2C(=O)[C@H](CCc2ccc(C(F)(F)F)c(Cl)c2)NC(=O)CN(C)C(=O)[C@H](Cc2ccc(C)cc2)N(C)C(=O)[C@@H]2CCN2C(=O)[C@H](C)N(C)C1=O [Compound 2177] ({CH2CO}-[NMeL]I[NMeA][Aze][NMePhe(4-Me)][Sar][hPhe(3-Cl-4-CF3)]P[Ac5c][NMeGly(cPent)][NMeC]-NMe2; thioether N-11)
[3]
  IC50: > 500 nM
[2]
  IC50: 250 nM

## CC[C@H](C)[C@@H]1NC(=O)[C@H](CC(C)C)N(C)C(=O)CSC[C@@H](C(=O)N(C)C)N(C)C(=O)[C@H]([C@@H](C)CC)N(C)C(=O)C2(CCCC2)NC(=O)[C@@H]2CCCN2C(=O)[C@H](CCc2ccc(C(F)(F)F)c(Cl)c2)NC(=O)CN(C)C(=O)[C@H](Cc2ccc(C)cc2)N(C)C(=O)CN(C)C(=O)CN(C)C1=O [Compound 2178] ({CH2CO}-[NMeL]I[Sar][Sar][NMePhe(4-Me)][Sar][hPhe(3-Cl-4-CF3)]P[Ac5c][NMeI][NMeC]-NMe2; thioether N-11)
[3]
  IC50: > 500 nM
[2]
  IC50: 160 nM

## CC[C@H](C)[C@@H]1NC(=O)[C@H](CC(C)C)N(C)C(=O)CSC[C@@H](C(=O)N(C)C)N(C)C(=O)[C@H](C2CCCC2)N(C)C(=O)C2(CCCC2)NC(=O)[C@@H]2CCCN2C(=O)[C@H](CCc2ccc(C(F)(F)F)c(F)c2)NC(=O)CN(C)C(=O)[C@H](C2CCCC2)N(C)C(=O)[C@@H]2CCN2C(=O)[C@H](C)N(C)C1=O [Compound 2179] ({CH2CO}-[NMeL]I[NMeA][Aze][NMeGly(cPent)][Sar][hPhe(3-F,4-CF3)]P[Ac5c][NMeGly(cPent)][NMeC]-NMe2; thioether N-11)
[3]
  IC50: > 500 nM
[2]
  IC50: 540 nM

## [NMeL]I[Sar][Sar][NMeCha][Sar][hPhe(3-Cl-4-CF3)]P[Ac5c][NMeChg]D-Piperidide (lactam N-11; not fully specified (residue 11)) [Compound 558]
Human KRAS G12D (human)
  IC50, cell growth inhibition (CellTiter-Glo), LS 180 (Colon): 22.6 nM
  IC50, cell growth inhibition (CellTiter-Glo), SNU-1 (Stomach): 29.8 nM
Human KRAS G12V (human)
  IC50, cell growth inhibition (CellTiter-Glo), NCI-H441 (NSCLC): 31.6 nM
  IC50, cell growth inhibition (CellTiter-Glo), SW480 (Colon): 17.5 nM
Human KRAS G12C (human)
  IC50, cell growth inhibition (CellTiter-Glo), MIA PaCa-2 (Pancreas): 18.7 nM
Human NRAS G13D (human)
  IC50, cell growth inhibition (CellTiter-Glo), NCI-H929 (Myeloma): 55.7 nM
Human KRAS G12S (human)
  IC50, cell growth inhibition (CellTiter-Glo), A549 (NSCLC): 7.98 nM
[6]
  IC50, cell growth inhibition (CellTiter-Glo), A4/Fuk (Non-Hodgkin lymphoma), KRAS Amp: 5.83 nM
  IC50, cell growth inhibition (CellTiter-Glo), KURAMOCHI (Ovary), KRAS Amp: 23.4 nM
